System: patients with evidence of coronary artery disease
Assay: dal-PLAQUE-2: change in carotid intima-media thickness (B-mode ultrasound) by ADCY9 genotype
Format: in vivo, human
Description: The dal-PLAQUE-2 study (Tardif J C et al, Circulation Cardiovascular imaging 2011; 4:319-33) was a phase 3b multicenter, double-blind, randomized, placebo-controlled, parallel group trial designed to evaluate the effect of dalcetrapib on atherosclerotic disease progression in patients with evidence of coronary artery disease and carotid intima media thickness of at least 0.65 mm in the far wall of the common carotid arteries, as assessed by B-mode ultrasonography. A total of 931 patients were randomized to receive dalcetrapib 600 mg daily or matching placebo with intended treatment duration of 24 months. However, the trial was terminated prematurely concurrent with the termination of dal OUTCOMES (the latter due to futility). Patients continued study medication until they returned for follow-up carotid imaging at 12 months. Carotid B-mode ultrasound recordings at baseline, month 6, and month 12 were analyzed centrally at the core laboratory of the Montreal Heart Institute. Intima-media thickness (IMT) was analyzed on the far wall of the common carotid arteries. A segment of 10 mm in length of the common carotid artery was analyzed on serial examinations using an automated edge detection software (Carotid Analyzer, Medical Imaging Applications, Coralville, Iowa). Among the 411 participants in the dal-PLAQUE-2 trial who consented to the genetic study, 386 had imaging measures at baseline, 6 months and 12 months (194 and 192 in the dalcetrapib and placebo arms respectively). DNA was extracted from whole blood. The research protocols were approved by the relevant institutional review boards or ethics committees and all human participants gave written informed consent.
All acquired carotid ultrasound recordings were analyzed at the core laboratory of the Montreal Heart Institute by experienced technicians supervised by a physician. Images were required to meet quality and inclusion and exclusion criteria for eligibility prior to random assignment to study treatment. The methods for carotid intima-media thickness analysis included side-by-side viewing of baseline and follow-up studies.
Carotid arterial wall segments were assessed in a longitudinal view, perpendicular to the ultrasound beam, with a horizontal display of the arterial image in order to view the interfaces between blood and vascular structures on the longest possible segment. The localization of the end of the common carotid artery was used as the landmark in repositioning and analyzing comparative length of segments in baseline and follow-up studies. Intima-media thickness was analyzed on the far wall of the right and left common carotid arteries, to reduce variability of measurements. The average of the mean intima-media thickness values of the right and left common carotid arteries was used. A matched segment of 10 mm in length of the common carotid artery was analyzed on serial examinations (baseline, 6 months and 12 months), starting 5 mm proximal to the carotid bifurcation. The edge detection software Carotid Analyzer (Medical Imaging Applications LLC, Coralville, Iowa) was used to analyze intima-media thickness using the automated option. Two sets of carotid artery borders were identified: First, the media-adventitia borders were determined and verified by the reader. When required, their locations were semi-automatically modified to the correct location. When these borders were approved, the lumen-intima boundaries were automatically detected using the media-adventitia borders for guidance. Frames from looped sequences of intima-media thickness were selected for reading, and poor quality outlier frames were removed from the analysis when required.
For the dal-Plaque-2 population, mixed regression models for repeated measures analysis were tested in SAS software. The dal-Plaque-2 tested endpoint was the mean of IMT measures of common carotid arteries at the 6-month and the 12-month visits, using the baseline measure as covariate. […]

CCC(CC)CC1(C(=O)Nc2ccccc2SC(=O)C(C)C)CCCCC1 [dalcetrapib, thioisobutyric acid S-(2-{[1-(2-ethyl-butyl)-cyclohexanecarbonyl]-amino}-phenyl) ester]
Change from baseline in carotid intima-media thickness, Mean (rs1967309, heterozygotes, M12): −0.001 mm
Change from baseline in carotid intima-media thickness, Mean (rs1967309, homozygotes for major allele, M06): 0.006 mm
Change from baseline in carotid intima-media thickness, Mean (rs1967309, homozygotes for major allele, M12): 0.005 mm
Change from baseline in carotid intima-media thickness, Mean (rs1967309, homozygotes for minor allele, M12): −0.021 mm
change in IMT after 12 months of treatment (rs1967309 AA homozygotes): −0.021±0.083 mm
change in IMT after 12 months of treatment (rs1967309 GG homozygotes): +0.005±0.042 mm
change in IMT after 12 months of treatment (rs1967309 heterozygotes): −0.001±0.048 mm
Change from baseline in carotid intima-media thickness, Mean (rs2238448, heterozygotes, M06): −0.003 mm
Change from baseline in carotid intima-media thickness, Mean (rs2238448, heterozygotes, M12): 0.000 mm
Change from baseline in carotid intima-media thickness, Mean (rs2238448, homozygotes for major allele, M06): 0.011 mm
Change from baseline in carotid intima-media thickness, Mean (rs2238448, homozygotes for major allele, M12): 0.009 mm
Change from baseline in carotid intima-media thickness, Mean (rs2238448, homozygotes for minor allele, M06): −0.010 mm
Change from baseline in carotid intima-media thickness, Mean (rs2238448, homozygotes for minor allele, M12): −0.027 mm
change in IMT after 12 months of treatment (rs2238448 CC (common allele homozygotes)): +0.009±0.038 mm
change in IMT after 12 months of treatment (rs2238448 TT (minor allele homozygotes)): −0.027±0.079 mm
change in IMT after 12 months of treatment (rs2238448 heterozygotes): 0.000±0.048 mm
Change from baseline in carotid intima-media thickness, Mean (rs2239310, heterozygotes, M06): −0.004 mm
Change from baseline in carotid intima-media thickness, Mean (rs2239310, heterozygotes, M12): −0.003 mm
Change from baseline in carotid intima-media thickness, Mean (rs2239310, homozygotes for major allele, M06): 0.004 mm
Change from baseline in carotid intima-media thickness, Mean (rs2239310, homozygotes for major allele, M12): 0.001 mm
Change from baseline in carotid intima-media thickness, Mean (rs2239310, homozygotes for minor allele, M06): −0.001 mm
Change from baseline in carotid intima-media thickness, Mean (rs2239310, homozygotes for minor allele, M12): −0.002 mm
Change from baseline in carotid intima-media thickness, Mean (rs2283497, heterozygotes, M06): −0.001 mm
Change from baseline in carotid intima-media thickness, Mean (rs2283497, heterozygotes, M12): 0.005 mm
Change from baseline in carotid intima-media thickness, Mean (rs2283497, homozygotes for minor allele, M06): −0.005 mm
Change from baseline in carotid intima-media thickness, Mean (rs2283497, homozygotes for minor allele, M12): −0.006 mm
Change from baseline in carotid intima-media thickness, Mean (rs2531967, heterozygotes, M06): −0.008 mm
Change from baseline in carotid intima-media thickness, Mean (rs2531967, heterozygotes, M12): −0.006 mm
Change from baseline in carotid intima-media thickness, Mean (rs2531967, homozygotes for minor allele, M06): −0.007 mm
Change from baseline in carotid intima-media thickness, Mean (rs2531967, homozygotes for minor allele, M12): −0.031 mm
Change from baseline in carotid intima-media thickness, Mean (rs2531971, heterozygotes, M06): −0.002 mm
Change from baseline in carotid intima-media thickness, Mean (rs2531971, heterozygotes, M12): 0.002 mm
Change from baseline in carotid intima-media thickness, Mean (rs2531971, homozygotes for major allele, M06): 0.008 mm
Change from baseline in carotid intima-media thickness, Mean (rs2531971, homozygotes for major allele, M12): −0.002 mm
Change from baseline in carotid intima-media thickness, Mean (rs2531971, homozygotes for minor allele, M06): −0.010 mm
Change from baseline in carotid intima-media thickness, Mean (rs2531971, homozygotes for minor allele, M12): −0.016 mm
Change from baseline in carotid intima-media thickness, Mean (rs3730119, heterozygotes, M06): −0.002 mm
Change from baseline in carotid intima-media thickness, Mean (rs3730119, heterozygotes, M12): 0.004 mm
Change from baseline in carotid intima-media thickness, Mean (rs3730119, homozygotes for minor allele, M06): 0.006 mm
Change from baseline in carotid intima-media thickness, Mean (rs3730119, homozygotes for minor allele, M12): −0.028 mm
Change from baseline in carotid intima-media thickness, Mean (rs4786454, heterozygotes, M06): −0.007 mm
Change from baseline in carotid intima-media thickness, Mean (rs4786454, heterozygotes, M12): −0.005 mm
Change from baseline in carotid intima-media thickness, Mean (rs4786454, homozygotes for minor allele, M06): −0.020 mm
Change from baseline in carotid intima-media thickness, Mean (rs4786454, homozygotes for minor allele, M12): −0.049 mm
Change from baseline in carotid intima-media thickness, Mean (rs8049452, heterozygotes, M06): −0.002 mm
Change from baseline in carotid intima-media thickness, Mean (rs8049452, heterozygotes, M12): 0.003 mm
Change from baseline in carotid intima-media thickness, Mean (rs8049452, homozygotes for major allele, M06): −0.008 mm
Change from baseline in carotid intima-media thickness, Mean (rs8049452, homozygotes for major allele, M12): −0.013 mm
Change from baseline in carotid intima-media thickness, Mean (rs8049452, homozygotes for minor allele, M06): 0.020 mm
Change from baseline in carotid intima-media thickness, Mean (rs8049452, homozygotes for minor allele, M12): 0.006 mm
Change from baseline in carotid intima-media thickness, Mean (rs8061182, heterozygotes, M06): 0.000 mm
Change from baseline in carotid intima-media thickness, Mean (rs8061182, heterozygotes, M12): 0.007 mm
Change from baseline in carotid intima-media thickness, Mean (rs8061182, homozygotes for minor allele, M06): 0.016 mm

Reference: patent publication US12371748B2, “Genetic markers for predicting responsiveness to therapy with HDL-raising or HDL mimicking agent” (Hoffmann-La Roche Inc., priority 2014, dated 2025)
